Test results taken from ChEMBL document CHEMBL5723585, “Data for DCP probe JNJ-54082730” (2024).
pKi: −log10 of the molar value. Active and inactive are the calls of the source. No cut-off for these calls is given here.

Experiments:
[1] = target: C-X-C chemokine receptor type 2 (Homo sapiens) (UniProt P25025); test: CXCR2 (IL-8B) Eurofins-Cerep binding assay; conditions: filed as agonist, Compound concentration 10.0 uM
[2] = target: cGMP-dependent 3',5'-cyclic phosphodiesterase (Homo sapiens, UniProt O00408); test: Scintillation proximity assay (PDE2A) ( Mean (95% Confidence Interval) = 0.8 -1 nM; Ki = 0.7 nM)
[3] = target: cGMP-dependent 3',5'-cyclic phosphodiesterase (Rattus norvegicus) (UniProt Q01062); test: Target occupancy in striatum ( p.o.dose, 1 h); assay type: organism-based
Rattus norvegicus [4] = species: Rattus norvegicus; test: alpha 1 (non-selective) Eurofins-Cerep binding assay; assay type: protein assay; parameters: ligand concentration 0.25 nM; conditions: filed as antagonist, Compound concentration 10.0 uM
Rattus norvegicus [5] = species: Rattus norvegicus; test: alpha 2 (non-selective) Eurofins-Cerep binding assay; assay type: protein assay; parameters: ligand concentration 1 nM; conditions: filed as antagonist, Compound concentration 10.0 uM
[6] = target: B2 bradykinin receptor (Homo sapiens) (UniProt P30411); test: B2 Eurofins-Cerep binding assay; parameters: ligand concentration 0.3 nM; conditions: filed as agonist, Compound concentration 10.0 uM
B2 bradykinin receptor (Homo sapiens), sequence (P30411 whole entry): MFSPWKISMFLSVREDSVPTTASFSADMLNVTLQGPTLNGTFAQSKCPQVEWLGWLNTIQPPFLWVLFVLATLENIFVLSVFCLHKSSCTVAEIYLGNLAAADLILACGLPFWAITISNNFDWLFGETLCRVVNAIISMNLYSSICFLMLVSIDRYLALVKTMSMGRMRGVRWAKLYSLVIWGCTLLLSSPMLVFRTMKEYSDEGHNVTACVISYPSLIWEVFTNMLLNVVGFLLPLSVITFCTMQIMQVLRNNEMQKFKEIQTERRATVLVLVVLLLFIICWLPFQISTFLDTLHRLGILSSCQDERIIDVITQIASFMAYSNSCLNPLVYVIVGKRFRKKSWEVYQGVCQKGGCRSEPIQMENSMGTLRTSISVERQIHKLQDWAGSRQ

[7] = target: D(2) dopamine receptor (Homo sapiens) (UniProt P14416); test: D2S (h) Eurofins-Cerep binding assay; parameters: ligand concentration 0.3 nM; conditions: filed as antagonist, Compound concentration 10.0 uM
D(2) dopamine receptor (Homo sapiens), sequence (P14416 whole entry): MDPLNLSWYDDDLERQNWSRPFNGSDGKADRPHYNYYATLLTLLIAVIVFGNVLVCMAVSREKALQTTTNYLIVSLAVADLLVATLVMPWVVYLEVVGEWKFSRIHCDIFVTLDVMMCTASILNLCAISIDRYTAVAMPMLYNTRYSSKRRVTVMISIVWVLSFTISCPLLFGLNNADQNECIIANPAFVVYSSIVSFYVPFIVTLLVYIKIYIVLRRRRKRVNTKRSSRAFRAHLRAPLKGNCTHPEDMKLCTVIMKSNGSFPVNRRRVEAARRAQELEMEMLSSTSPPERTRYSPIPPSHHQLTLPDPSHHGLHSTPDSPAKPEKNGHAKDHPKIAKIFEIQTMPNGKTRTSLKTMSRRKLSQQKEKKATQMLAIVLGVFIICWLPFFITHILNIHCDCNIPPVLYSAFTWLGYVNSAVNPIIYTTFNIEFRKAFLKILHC

[8] = target: GABA-A receptor; anion channel (Rattus norvegicus) (UniProt O09028+P15431+P18506+P18508+P19969+P20236+P23574+P23576+P28471+P28473+P30191+P62813+P63079+P63138+Q91ZM7+Q9ES14); test: GABA (non-selective) Eurofins-Cerep binding assay; assay type: protein-complex assay; parameters: ligand concentration 10 nM; conditions: filed as agonist, Compound concentration 10.0 uM
[9] = target: Galanin receptor type 2 (Homo sapiens) (UniProt O43603); test: GAL2 Eurofins-Cerep binding assay; parameters: ligand concentration 0.05 nM; conditions: filed as agonist, Compound concentration 10.0 uM
[10] = target: C-C chemokine receptor type 1 (Homo sapiens) (UniProt P32246); test: CCR1 Eurofins-Cerep binding assay; parameters: ligand concentration 0.01 nM; conditions: filed as agonist, Compound concentration 10.0 uM
[11] = target: Substance-K receptor (Homo sapiens) (UniProt P21452); test: NK2 Eurofins-Cerep binding assay; parameters: ligand concentration 0.1 nM; conditions: filed as agonist, Compound concentration 10.0 uM
[12] = target: Neuromedin-K receptor (Homo sapiens) (UniProt P29371); test: NK3 Eurofins-Cerep binding assay; parameters: ligand concentration 0.4 nM; conditions: filed as antagonist, Compound concentration 10.0 uM
[13] = target: Neurotensin receptor type 1 (Homo sapiens) (UniProt P30989); test: NTS1 (NT1) Eurofins-Cerep binding assay; parameters: ligand concentration 0.05 nM; conditions: filed as agonist, Compound concentration 10.0 uM
[14] = target: Nociceptin receptor (Homo sapiens) (UniProt P41146); test: NOP (ORL1) Eurofins-Cerep binding assay; parameters: ligand concentration 0.06 nM; conditions: filed as agonist, Compound concentration 10.0 uM
Nociceptin receptor (Homo sapiens), sequence (P41146 whole entry): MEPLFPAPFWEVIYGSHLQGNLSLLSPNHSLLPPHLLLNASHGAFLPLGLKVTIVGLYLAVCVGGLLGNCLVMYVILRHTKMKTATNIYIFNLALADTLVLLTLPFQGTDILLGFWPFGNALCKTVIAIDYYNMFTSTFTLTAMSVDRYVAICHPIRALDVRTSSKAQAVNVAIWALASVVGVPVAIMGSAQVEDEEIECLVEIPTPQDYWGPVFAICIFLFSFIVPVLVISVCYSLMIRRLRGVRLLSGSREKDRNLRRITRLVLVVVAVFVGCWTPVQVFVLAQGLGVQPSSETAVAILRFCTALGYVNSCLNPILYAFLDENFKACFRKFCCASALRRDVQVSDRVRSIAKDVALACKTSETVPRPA

[15] = target: 5-hydroxytryptamine receptor 2A (Homo sapiens) (UniProt P28223); test: 5-HT2A Eurofins-Cerep binding assay; parameters: ligand concentration 0.5 nM; conditions: filed as antagonist, Compound concentration 10.0 uM
[16] = target: 5-hydroxytryptamine receptor 5A (Homo sapiens) (UniProt P47898); test: 5-HT5a Eurofins-Cerep binding assay; parameters: ligand concentration 1.5 nM; conditions: filed as agonist, Compound concentration 10.0 uM
[17] = target: 5-hydroxytryptamine receptor 6 (Homo sapiens) (UniProt P50406); test: 5-HT6 Eurofins-Cerep binding assay; parameters: ligand concentration 2 nM; conditions: filed as agonist, Compound concentration 10.0 uM
Mus musculus = species: Mus musculus; test: sst (non-selective) Eurofins-Cerep binding assay; assay type: protein assay; parameters: ligand concentration 0.05 nM; conditions: filed as agonist, Compound concentration 10.0 uM
[18] = target: Vasoactive intestinal polypeptide receptor 1 (Homo sapiens) (UniProt P32241); test: VPAC1 (VIP1) Eurofins-Cerep binding assay; parameters: ligand concentration 0.04 nM; conditions: filed as agonist, Compound concentration 10.0 uM
Rattus norvegicus [19] = species: Rattus norvegicus; test: Ca2+ channel (L,verapamil site) (phenylalkylamine) Eurofins-Cerep binding assay; assay type: protein assay; parameters: ligand concentration 3 nM; conditions: filed as antagonist, Compound concentration 10.0 uM
Rattus norvegicus [20] = species: Rattus norvegicus; test: SKCa channel Eurofins-Cerep binding assay; assay type: protein assay; parameters: ligand concentration 0.007 nM; conditions: filed as antagonist, Compound concentration 10.0 uM
[21] = target: cAMP and cAMP-inhibited cGMP 3',5'-cyclic phosphodiesterase 10A (Homo sapiens, UniProt Q9Y233); test: IC50 of hPDE10A2 in the PDE screen at 1.0 µM
cAMP and cAMP-inhibited cGMP 3',5'-cyclic phosphodiesterase 10A, sequence (Q9Y233 whole entry): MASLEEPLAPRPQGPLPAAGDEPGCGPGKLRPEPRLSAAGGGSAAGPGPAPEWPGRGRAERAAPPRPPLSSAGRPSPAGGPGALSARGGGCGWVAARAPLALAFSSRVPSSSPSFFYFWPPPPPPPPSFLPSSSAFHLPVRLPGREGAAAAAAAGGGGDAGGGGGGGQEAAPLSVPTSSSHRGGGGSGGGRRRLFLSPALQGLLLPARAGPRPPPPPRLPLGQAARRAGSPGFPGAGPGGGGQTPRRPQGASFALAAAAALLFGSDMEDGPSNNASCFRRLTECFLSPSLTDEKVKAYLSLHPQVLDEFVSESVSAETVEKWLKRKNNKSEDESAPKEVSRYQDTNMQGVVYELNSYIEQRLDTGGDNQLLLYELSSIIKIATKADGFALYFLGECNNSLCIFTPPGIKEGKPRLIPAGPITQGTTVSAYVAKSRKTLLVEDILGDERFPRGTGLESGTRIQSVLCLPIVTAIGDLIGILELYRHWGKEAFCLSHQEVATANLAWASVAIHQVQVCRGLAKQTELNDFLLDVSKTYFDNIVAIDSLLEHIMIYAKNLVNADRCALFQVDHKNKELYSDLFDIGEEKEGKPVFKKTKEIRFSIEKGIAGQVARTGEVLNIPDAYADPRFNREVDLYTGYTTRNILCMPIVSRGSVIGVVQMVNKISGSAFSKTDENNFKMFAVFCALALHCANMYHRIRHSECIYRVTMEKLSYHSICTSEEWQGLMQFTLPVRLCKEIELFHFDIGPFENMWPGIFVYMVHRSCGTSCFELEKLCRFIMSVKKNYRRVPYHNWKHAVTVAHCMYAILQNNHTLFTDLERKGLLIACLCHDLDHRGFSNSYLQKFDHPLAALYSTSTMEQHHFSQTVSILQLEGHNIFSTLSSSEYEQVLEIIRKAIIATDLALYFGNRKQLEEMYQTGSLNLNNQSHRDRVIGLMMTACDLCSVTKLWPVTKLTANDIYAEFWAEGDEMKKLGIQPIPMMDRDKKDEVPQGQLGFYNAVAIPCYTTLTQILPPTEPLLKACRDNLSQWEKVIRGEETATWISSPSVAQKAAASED

Phosphodiesterase 3 = Phosphodiesterase 3 (Homo sapiens, UniProt Q14432+Q13370); test: IC50 of hPDE3 in the PDE screen at 1.0 µM; assay type: protein assay
[22] = target: Dual specificity calcium/calmodulin-dependent 3',5'-cyclic nucleotide phosphodiesterase 1B (Homo sapiens, UniProt Q01064); test: IC50 of hPDE1B1 in the PDE screen at 1.0 µM
Dual specificity calcium/calmodulin-dependent 3',5'-cyclic nucleotide phosphodiesterase 1B, sequence (Q01064 whole entry): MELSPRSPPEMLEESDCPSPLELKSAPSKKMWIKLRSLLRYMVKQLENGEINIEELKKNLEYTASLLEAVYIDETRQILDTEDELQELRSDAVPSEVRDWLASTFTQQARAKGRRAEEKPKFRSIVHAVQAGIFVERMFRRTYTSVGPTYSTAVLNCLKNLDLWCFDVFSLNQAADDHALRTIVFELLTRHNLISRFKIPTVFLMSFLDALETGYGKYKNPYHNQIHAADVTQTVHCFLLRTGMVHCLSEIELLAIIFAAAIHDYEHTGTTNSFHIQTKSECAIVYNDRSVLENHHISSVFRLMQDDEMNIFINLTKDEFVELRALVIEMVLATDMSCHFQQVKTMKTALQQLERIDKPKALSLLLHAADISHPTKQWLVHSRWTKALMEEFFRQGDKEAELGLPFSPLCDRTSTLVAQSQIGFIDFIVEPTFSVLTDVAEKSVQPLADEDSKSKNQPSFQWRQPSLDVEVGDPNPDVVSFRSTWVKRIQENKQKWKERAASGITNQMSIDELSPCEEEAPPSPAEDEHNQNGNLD

[23] = target: 3',5'-cyclic-AMP phosphodiesterase 4D (Homo sapiens, UniProt Q08499); test: IC50 of hPDE4D3 in the PDE screen at 1.0 µM
3',5'-cyclic-AMP phosphodiesterase 4D, sequence (Q08499 whole entry): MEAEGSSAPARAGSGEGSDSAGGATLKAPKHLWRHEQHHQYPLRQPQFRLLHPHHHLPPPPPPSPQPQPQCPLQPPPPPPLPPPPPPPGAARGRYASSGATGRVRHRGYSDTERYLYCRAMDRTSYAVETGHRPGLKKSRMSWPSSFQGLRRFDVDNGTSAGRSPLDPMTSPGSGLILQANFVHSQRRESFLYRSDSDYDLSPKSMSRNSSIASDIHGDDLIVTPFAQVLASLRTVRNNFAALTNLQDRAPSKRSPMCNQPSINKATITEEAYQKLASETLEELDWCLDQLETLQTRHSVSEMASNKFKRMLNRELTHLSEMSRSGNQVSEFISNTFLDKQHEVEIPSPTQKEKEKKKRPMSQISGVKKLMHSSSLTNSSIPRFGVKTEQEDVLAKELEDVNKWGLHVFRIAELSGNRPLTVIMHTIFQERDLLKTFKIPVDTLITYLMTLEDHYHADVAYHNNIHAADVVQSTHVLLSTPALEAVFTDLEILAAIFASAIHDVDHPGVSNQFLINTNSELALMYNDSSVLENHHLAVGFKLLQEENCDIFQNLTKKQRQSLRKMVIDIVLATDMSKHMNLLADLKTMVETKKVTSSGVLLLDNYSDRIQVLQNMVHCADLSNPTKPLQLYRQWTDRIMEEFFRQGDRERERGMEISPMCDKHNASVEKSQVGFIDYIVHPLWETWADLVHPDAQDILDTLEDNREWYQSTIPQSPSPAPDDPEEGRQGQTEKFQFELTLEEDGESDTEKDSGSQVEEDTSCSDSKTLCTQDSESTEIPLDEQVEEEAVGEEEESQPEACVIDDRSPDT

[24] = target: cGMP-specific 3',5'-cyclic phosphodiesterase (Homo sapiens, UniProt O76074); test: IC50 of hPDE5A3 in the PDE screen at 1.0 µM
[25] = IC50 of bovine retina PDE6 in the PDE screen at 1.0 µM; parameters: species or system Bos taurus
[26] = target: High affinity 3',5'-cyclic-AMP phosphodiesterase 7A (Homo sapiens, UniProt Q13946); test: IC50 of hPDE7A1 in the PDE screen at 1.0 µM
[27] = target: High affinity cAMP-specific and IBMX-insensitive 3',5'-cyclic phosphodiesterase 8A (Homo sapiens, UniProt O60658); test: IC50 of hPDE8A1 in the PDE screen at 1.0 µM
High affinity cAMP-specific and IBMX-insensitive 3',5'-cyclic phosphodiesterase 8A, sequence (O60658 whole entry): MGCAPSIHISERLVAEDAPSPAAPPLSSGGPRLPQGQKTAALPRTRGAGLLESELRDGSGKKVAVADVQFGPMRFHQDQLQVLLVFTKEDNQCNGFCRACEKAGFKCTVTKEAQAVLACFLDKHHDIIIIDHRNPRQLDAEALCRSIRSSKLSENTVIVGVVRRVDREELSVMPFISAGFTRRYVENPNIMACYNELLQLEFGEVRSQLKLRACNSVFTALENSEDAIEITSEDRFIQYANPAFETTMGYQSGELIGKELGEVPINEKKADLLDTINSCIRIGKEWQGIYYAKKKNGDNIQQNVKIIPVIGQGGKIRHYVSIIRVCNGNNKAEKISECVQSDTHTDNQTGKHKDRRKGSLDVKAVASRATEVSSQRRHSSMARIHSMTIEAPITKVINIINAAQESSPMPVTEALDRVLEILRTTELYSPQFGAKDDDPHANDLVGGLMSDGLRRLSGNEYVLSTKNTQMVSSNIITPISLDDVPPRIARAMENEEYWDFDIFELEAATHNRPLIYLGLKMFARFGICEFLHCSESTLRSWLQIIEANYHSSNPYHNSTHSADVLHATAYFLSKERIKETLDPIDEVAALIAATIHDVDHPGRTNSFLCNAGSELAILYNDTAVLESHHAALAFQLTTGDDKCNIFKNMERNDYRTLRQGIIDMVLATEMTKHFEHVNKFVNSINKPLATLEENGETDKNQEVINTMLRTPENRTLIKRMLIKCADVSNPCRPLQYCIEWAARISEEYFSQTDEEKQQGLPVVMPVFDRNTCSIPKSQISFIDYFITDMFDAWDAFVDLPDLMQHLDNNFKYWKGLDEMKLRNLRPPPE

[28] = target: High affinity cGMP-specific 3',5'-cyclic phosphodiesterase 9A (Homo sapiens, UniProt O76083); test: IC50 of hPDE9A in the PDE screen at 1.0 µM
High affinity cGMP-specific 3',5'-cyclic phosphodiesterase 9A, sequence (O76083 whole entry): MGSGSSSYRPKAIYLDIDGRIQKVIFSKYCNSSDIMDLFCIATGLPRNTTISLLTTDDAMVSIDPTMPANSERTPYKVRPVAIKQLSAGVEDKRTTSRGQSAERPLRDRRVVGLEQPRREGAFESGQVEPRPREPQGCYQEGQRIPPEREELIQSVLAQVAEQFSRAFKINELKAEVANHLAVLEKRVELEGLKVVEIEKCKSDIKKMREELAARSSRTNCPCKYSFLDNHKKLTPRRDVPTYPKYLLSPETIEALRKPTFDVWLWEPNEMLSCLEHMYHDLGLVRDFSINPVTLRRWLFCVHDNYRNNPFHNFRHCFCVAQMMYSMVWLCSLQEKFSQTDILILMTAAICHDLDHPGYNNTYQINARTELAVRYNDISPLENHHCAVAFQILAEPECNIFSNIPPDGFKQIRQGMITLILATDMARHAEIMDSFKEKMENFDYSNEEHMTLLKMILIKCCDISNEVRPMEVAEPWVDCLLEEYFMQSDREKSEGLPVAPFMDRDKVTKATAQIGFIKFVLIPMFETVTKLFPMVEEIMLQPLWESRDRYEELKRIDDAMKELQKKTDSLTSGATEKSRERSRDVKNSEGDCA

In the case of `Cc1cc(C(=O)N2CC[C@@H](C)[C@H](c3cc(C(F)F)nc4ncnn34)C2)cc(C)n1`, the residual activity [1] was 109%, the IC50 [2] was 0.9 nM (active) and the ED50 [3] was 5.3 mg/kg. The residual activity (Rattus norvegicus [4]) was 104%, the residual activity (Rattus norvegicus [5]) was 104% and the residual activity [6] was 103%. For the same compound, the residual activity [7] was 104%, the residual activity [8] was 100% and the residual activity [9] was 94%. The residual activity [10] was 89.6%, the residual activity [11] was 102% and the residual activity [12] was 99.8%. It also gave a residual activity [13] of 111%, a residual activity [14] of 103% and a residual activity [15] of 108%. The residual activity [16] was 95.3%, the residual activity [17] was 100% and the residual activity (Mus musculus) was 122%. It also gave a residual activity [18] of 111%, a residual activity (Rattus norvegicus [19]) of 96.6% and a residual activity (Rattus norvegicus [20]) of 101%. For the same compound, the IC50 [21] was 99 nM (not active), the pKi [21] was 7.52 and the IC50 (Phosphodiesterase 3) was 6.643 µM. The Ki (Phosphodiesterase 3) was 3.32 µM, the IC50 [22] was > 10 µM (not active) and the IC50 [23] was > 10 µM (not active). For the same compound, the IC50 [24] was > 10 µM (not active), the IC50 [25] was > 10 µM (not active) and the IC50 [26] was > 10 µM (not active). For the same compound, the IC50 [27] was > 10 µM (not active) and the IC50 [28] was > 10 µM (not active).
